Test results as given in patent US4795826A, “Ortho-phenylenediamine compounds” (priority 1986, dated 1989).

Columns and labels:
[1] = system: P388 leukemia; assay: P388 leukemia in vivo (increase in lifespan of mice, i.p. tumour); conditions: for ILSmax (percentage increase in lifespan) / ILSmax (percentage increase in lifespan), marked *: P388, at OD on days 1, 5, 9, >20% statistically significant; for ILSmax (percentage increase in lifespan): values without asterisk, controls 11 days; for active (P388): P388, at the stated dose
[2] = system: Lewis lung carcinoma; assay: Lewis lung carcinoma in vivo (increase in lifespan of mice, i.v. tumour); conditions: Lewis lung; for ILS (percentage increase in lifespan) / ILS (percentage increase in lifespan), marked *: at OD on days 1, 5, 9, >40% statistically significant; for ILS (percentage increase in lifespan): values without asterisk, controls 17 days; for active (Lewis lung): at the stated dose

Row | SMILES | ILSmax (percentage increase in lifespan) [1] [%] | active (P388) [1] | further results
1 | CNc1cc(NS(C)(=O)=O)ccc1Nc1c2ccccc2nc2cc(C)ccc12 [Compound 3] | 83 | Y | –
2 | CNc1cc(NS(C)(=O)=O)ccc1Nc1c2ccccc2nc2cc(OC)ccc12 [Compound 4] | – | Y | ILSmax (percentage increase in lifespan), marked * [1]: 140%
3 | CNc1cc(NS(C)(=O)=O)ccc1Nc1c2ccccc2nc2cc(F)ccc12 [Compound 5] | – | Y | ILSmax (percentage increase in lifespan), marked * [1]: 157%
4 | CNc1cc(NS(C)(=O)=O)ccc1Nc1c2ccccc2nc2cc(Cl)ccc12 [Compound 6] | – | Y | ILSmax (percentage increase in lifespan), marked * [1]: 149%
5 | CNc1cc(NS(C)(=O)=O)ccc1Nc1c2ccccc2nc2cc(Br)ccc12 [Compound 7] | 94 | Y | –
6 | CNc1cc(NS(C)(=O)=O)ccc1Nc1c2ccccc2nc2cc(I)ccc12 [Compound 8] | 80 | Y | –
7 | CNc1cc(NS(C)(=O)=O)ccc1Nc1c2ccccc2nc2cc([N+](=O)[O-])ccc12 [Compound 9] | 70 | Y | –
8 | CNc1ccc2c(Nc3ccc(NS(C)(=O)=O)cc3NC)c3ccccc3nc2c1 [Compound 10] | – | Y | ILSmax (percentage increase in lifespan), marked * [1]: 208%
9 | CNc1cc(NS(C)(=O)=O)ccc1Nc1c2ccccc2nc2cc(NC(=O)OC)ccc12 [Compound 11] | – | Y | ILSmax (percentage increase in lifespan), marked * [1]: 135%
10 | CNc1cc(NS(C)(=O)=O)ccc1Nc1c2ccccc2nc2c(OC)cccc12 [Compound 13] | – | Y | ILSmax (percentage increase in lifespan), marked * [1]: 118%; ILS (percentage increase in lifespan) [2]: 153%; active (Lewis lung) [2]: Y
11 | CNC(=O)c1cccc2c(Nc3ccc(NS(C)(=O)=O)cc3NC)c3ccccc3nc12 [Compound 15] | 82 | Y | –
12 | CNc1cc(NS(C)(=O)=O)ccc1Nc1c2ccc(C)cc2nc2c(C)cccc12 [Compound 16] | 92 | Y | –
13 | CNc1cc(NS(C)(=O)=O)ccc1Nc1c2ccc(OC)cc2nc2c(C)cccc12 [Compound 17] | 102 | Y | –
14 | CNc1cc(NS(C)(=O)=O)ccc1Nc1c2ccc(F)cc2nc2c(C)cccc12 [Compound 18] | – | Y | ILSmax (percentage increase in lifespan), marked * [1]: 152%; ILS (percentage increase in lifespan), marked * [2]: 143%; active (Lewis lung) [2]: Y
15 | CNc1cc(NS(C)(=O)=O)ccc1Nc1c2ccc(Cl)cc2nc2c(C)cccc12 [Compound 19] | – | Y | ILSmax (percentage increase in lifespan), marked * [1]: 128%; ILS (percentage increase in lifespan) [2]: 126%; active (Lewis lung) [2]: Y
16 | CNc1cc(NS(C)(=O)=O)ccc1Nc1c2ccc(Cl)cc2nc2c(OC)cccc12 [Compound 20] | 105 | Y | –
17 | CNc1cc(NS(C)(=O)=O)ccc1Nc1c2ccc(Br)cc2nc2c(C)cccc12 [Compound 21] | 122 | Y | –
18 | CNc1cc(NS(C)(=O)=O)ccc1Nc1c2ccc(C)cc2nc2c(OC)cccc12 [Compound 22] | 122 | Y | –
19 | CNC(=O)c1cccc2c(Nc3ccc(NS(C)(=O)=O)cc3NC)c3ccc(Cl)cc3nc12 [Compound 23] | 59 | Y | –
20 | CNC(=O)c1cccc2c(Nc3ccc(NS(C)(=O)=O)cc3NC)c3cccc(C)c3nc12 [Compound 24] | 94 | Y | –
21 | CNc1cc(NS(C)(=O)=O)ccc1Nc1c2cccc(C)c2nc2c(C)cccc12 [Compound 25] | 107 | Y | –
22 | CNc1cc(NS(C)(=O)=O)ccc1Nc1c2cccc(OC)c2nc2c(OC)cccc12 [Compound 26] | 84 | Y | –
23 | CS(=O)(=O)Nc1ccc(Nc2c3ccccc3nc3ccccc23)c(NCCO)c1 [Compound 27] | 89 | Y | –
24 | CS(=O)(=O)Nc1ccc(Nc2c3ccccc3nc3cc(Br)ccc23)c(NCCO)c1 [Compound 28] | 117 | Y | –
25 | Cc1cccc2c(Nc3ccc(NS(C)(=O)=O)cc3NCCO)c3ccccc3nc12 [Compound 29] | – | Y | ILSmax (percentage increase in lifespan), marked * [1]: 159%

Row | SMILES | ILSmax (percentage increase in lifespan) [1] [%] | active (P388) [1] | further results
26 | CS(=O)(=O)Nc1ccc(Nc2c3ccccc3nc3ccccc23)c(NCC(O)CO)c1 (stereo not drawn) [Compound 30] | 84 | Y | –
27 | Cc1cccc2c(Nc3ccc(NS(C)(=O)=O)cc3NCC(O)CO)c3ccccc3nc12 (stereo not drawn) [Compound 31] | 83 | Y | –
28 | CN(C)c1cc(NS(C)(=O)=O)ccc1Nc1c2ccccc2nc2ccccc12 [Compound 32] | – | Y | ILSmax (percentage increase in lifespan), marked * [1]: 212%; cured animals ([2]; at OD): all cured; ILS (percentage increase in lifespan) [2]: > 250%; active (Lewis lung) [2]: Y
29 | CN(CCO)c1cc(NS(C)(=O)=O)ccc1Nc1c2ccccc2nc2ccccc12 [Compound 45] | – | Y | ILSmax (percentage increase in lifespan), marked * [1]: 100%
30 | Cc1cccc2c(Nc3ccc(NS(C)(=O)=O)cc3N(C)CCO)c3ccccc3nc12 [Compound 46] | – | Y | ILSmax (percentage increase in lifespan), marked * [1]: 152%
31 | CNc1cc(NP(=O)(OC)OC)ccc1Nc1c2ccccc2nc2ccccc12 [Compound 47] | 118 | Y | –
32 | CNc1cc(NP(=O)(OC)OC)ccc1Nc1c2ccccc2nc2cc(Br)ccc12 [Compound 48] | 77 | Y | –
33 | CNc1cc(NP(=O)(OC)OC)ccc1Nc1c2ccccc2nc2c(C)cccc12 [Compound 49] | 91 | Y | –
34 | CNc1cc(NC(=O)OC)ccc1Nc1c2ccccc2nc2ccccc12 [Compound 50] | 132 | Y | ILS (percentage increase in lifespan), marked * [2]: 122%; active (Lewis lung) [2]: Y
35 | COC(=O)Nc1ccc(Nc2c3ccccc3nc3ccccc23)c(NCCO)c1 [Compound 51] | 121 | Y | –
36 | CNc1cc(NC(=O)OC)ccc1Nc1c2ccccc2nc2cc(C)ccc12 [Compound 52] | 86 | Y | –
37 | CNc1cc(NC(=O)OC)ccc1Nc1c2ccccc2nc2cc(F)ccc12 [Compound 53] | 110 | Y | –
38 | CNc1cc(NC(=O)OC)ccc1Nc1c2ccccc2nc2cc(Cl)ccc12 [Compound 54] | 104 | Y | –
39 | CNc1cc(NC(=O)OC)ccc1Nc1c2ccccc2nc2cc(Br)ccc12 [Compound 55] | 101 | Y | –
40 | CNc1cc(NC(=O)OC)ccc1Nc1c2ccc(Cl)cc2nc2c(C)cccc12 [Compound 56] | – | Y | ILSmax (percentage increase in lifespan), marked * [1]: 151%; ILS (percentage increase in lifespan) [2]: 100%; active (Lewis lung) [2]: Y
41 | CNc1cc(NC(=O)OC)ccc1Nc1c2ccc(Br)cc2nc2c(C)cccc12 [Compound 57] | 97 | Y | ILS (percentage increase in lifespan), marked * [2]: 82%; active (Lewis lung) [2]: Y
42 | CNc1cc(NC(=O)OC)ccc1Nc1c2ccccc2nc2c(C)cccc12 [Compound 58] | 114 | Y | ILS (percentage increase in lifespan), marked * [2]: 48%; active (Lewis lung) [2]: Y
43 | COC(=O)Nc1ccc(Nc2c3ccccc3nc3ccccc23)c(N(C)C)c1 [Compound 59] | 51 | Y | –
44 | CNc1cc(NS(=O)(=O)c2ccccc2)ccc1Nc1c2ccccc2nc2ccccc12 [Compound 60] | 117 | Y | –
45 | O=S(=O)(Nc1ccc(Nc2c3ccccc3nc3ccccc23)c(NCCO)c1)c1ccccc1 [Compound 61] | 81 | Y | –
46 | CNc1cc(NS(=O)(=O)c2ccc(N)cc2)ccc1Nc1c2ccccc2nc2ccccc12 [Compound 62] | 104 | Y | –
47 | CNc1cc(NS(=O)(=O)c2ccc(N)cc2)ccc1Nc1c2ccccc2nc2cc(Br)ccc12 [Compound 63] | 115 | Y | –
48 | CNc1cc(NS(=O)(=O)c2ccc(N)cc2)ccc1Nc1c2ccccc2nc2c(C)cccc12 [Compound 64] | 139 | Y | –
49 | Nc1ccc(S(=O)(=O)Nc2ccc(Nc3c4ccccc4nc4ccccc34)c(NCCO)c2)cc1 [Compound 65] | 50 | Y | –
50 | CNc1cc(NC(=O)Oc2ccccc2)ccc1Nc1c2ccccc2nc2ccccc12 [Compound 66] | 71 | Y | –
